# From patent publication US20260250318A1, “COMPOSITIONS AND METHODS FOR CROSSING THE BLOOD BRAIN BARRIER” (VOYAGER THERAPEUTICS, INC., priority 2022, published 2026)
# Assays:
# [1] = test system: brains, heart, liver, muscle, and DRG of the NHPs; assay: Maturation of TTM-001 and TTM-002 capsids, NGS enrichment in NHP tissues; type: in vivo; details: relative to AAV9 control
# How it was run: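 Variants carry mutations within and flanking the loop IV peptide insert: positions 450–466 were triplet-randomized, while positions 449–466 received low-frequency point mutations. The combined pool went into two NHPs, and each peptide was scored by NGS enrichment ratio against AAV9.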
# brain = assay: Matured TTM-001 and TTM-002 variants, NGS enrichment in mouse brain; type: in vivo, mice; details: relative to AAV9 control
# [2] = NGS fold-enrichment, DRG of NHPs
# [3] = NGS fold-enrichment, RNA, brain of NHPs
# [4] = NGS fold-enrichment, heart of NHPs
# [5] = NGS fold-enrichment, liver DNA of NHPs
# [6] = NGS fold-enrichment, liver RNA of NHPs
# [7] = NGS fold-enrichment, muscle of NHPs
# [8] = NGS fold-enrichment, brain of mice
# [9] = NGS fold-enrichment of RNA, NHP brain
# [10] = NGS fold-enrichment, NHP liver DNA
# [11] = NGS fold-enrichment, NHP liver RNA
# [12] = NGS fold-enrichment, NHP muscle
# [13] = NGS fold-enrichment, mouse brain
# [14] = NGS fold-enrichment of matured AAV capsid variants, NHP brain, RNA
Sequence,"Fold Enrichment relative to AAV9, DRG (NHP) [1, 2] [fold]","Fold Enrichment relative to AAV9, Brain (NHP) [1, 3] [fold]","Fold Enrichment relative to AAV9, Heart (NHP) [1, 4] [fold]","Fold Enrichment relative to AAV9, Liver DNA (NHP) [1, 5] [fold]","Fold Enrichment relative to AAV9, Liver RNA (NHP) [1, 6] [fold]","Fold Enrichment relative to AAV9, Muscle (NHP) [1, 7] [fold]","Fold Enrichment relative to AAV9, Brain (Mouse) (brain; [8]) [fold]","Fold Enrichment relative to AAV9, Brain (NHP) [1, 14] [fold]","Fold Enrichment relative to AAV9, DRG (NHP) ([1]; NHP DRG) [fold]","Fold Enrichment relative to AAV9, Heart (NHP) ([1]; NHP heart) [fold]","Fold Enrichment relative to AAV9, Liver DNA (NHP) ([1]; NHP liver, DNA) [fold]","Fold Enrichment relative to AAV9, Liver RNA (NHP) ([1]; NHP liver, RNA) [fold]","Fold Enrichment relative to AAV9, Muscle (NHP) ([1]; NHP muscle) [fold]","Fold Enrichment relative to AAV9, Brain (Mouse) (brain; mouse brain) [fold]",also measured
KTINGSGSPHSKSQSQQI,0.000,61.870,0.000,0.175,0.200,0.000,64.027,,,,,,,,
KTINGSGSPHSKSQTQQN,0.000,104.474,0.131,0.038,0.084,0.000,54.021,,,,,,,,"Fold Enrichment relative to AAV9, Brain (NHP) [1, 9]: 104.474 fold; Fold Enrichment relative to AAV9, DRG (NHP) ([1]; NGS fold-enrichment, NHP DRG): 0.000 fold; Fold Enrichment relative to AAV9, Heart (NHP) ([1]; NGS fold-enrichment, NHP heart): 0.131 fold; Fold Enrichment relative to AAV9, Liver DNA (NHP) [1, 10]: 0.038 fold; Fold Enrichment relative to AAV9, Liver RNA (NHP) [1, 11]: 0.084 fold; Fold Enrichment relative to AAV9, Muscle (NHP) [1, 12]: 0.000 fold; Fold Enrichment relative to AAV9, Brain (Mouse) (brain; [13]): 54.021 fold"
KTINGSGSPHSKTKSQQT,0.000,70.891,0.568,0.496,0.418,0.045,83.923,,,,,,,,
KTINGSGSPHSKTQNHQN,,,,,,,,55.551,0.000,0.048,0.099,0.000,0.000,64.846,
KTINGSGSPHSKVPNLQT,,,,,,,,57.046,0.000,0.029,0.082,0.459,0.000,50.474,
KTINGSGSPHSYHVNQQT,,,,,,,,50.486,0.000,0.056,0.275,0.528,0.059,179.489,
KTINGSGSPHTKAQNPPT,,,,,,,,,,,,,,,"Fold Enrichment relative to AAV9, Brain (NHP) [1, 9]: 147.061 fold; Fold Enrichment relative to AAV9, DRG (NHP) ([1]; NGS fold-enrichment, NHP DRG): 0.000 fold; Fold Enrichment relative to AAV9, Heart (NHP) ([1]; NGS fold-enrichment, NHP heart): 0.727 fold; Fold Enrichment relative to AAV9, Liver DNA (NHP) [1, 10]: 0.000 fold; Fold Enrichment relative to AAV9, Liver RNA (NHP) [1, 11]: 0.000 fold; Fold Enrichment relative to AAV9, Muscle (NHP) [1, 12]: 0.000 fold; Fold Enrichment relative to AAV9, Brain (Mouse) (brain; [13]): 34.425 fold"
KTINGSGSPHTKAQNPQS,0.000,72.594,0.000,0.130,0.000,0.000,62.508,,,,,,,,
KTINGSGSSHSKAQNQQT,,,,,,,,54.292,1.709,1.870,0.458,1.075,1.287,67.731,
KTINGSVSPHGKAQNQLT (peptide inserted in AAV capsid),0.000,73.525,0.061,0.053,0.000,0.067,51.358,,,,,,,,
KTINGTGSPHSKAPNQLT,,,,,,,,58.738,0.000,0.000,0.035,0.229,0.000,86.939,
KTINGTGSPHSKAQNHQI,0.171,77.089,0.000,0.166,0.000,0.000,54.281,,,,,,,,"Fold Enrichment relative to AAV9, Brain (NHP) [1, 9]: 77.089 fold; Fold Enrichment relative to AAV9, DRG (NHP) ([1]; NGS fold-enrichment, NHP DRG): 0.171 fold; Fold Enrichment relative to AAV9, Heart (NHP) ([1]; NGS fold-enrichment, NHP heart): 0.000 fold; Fold Enrichment relative to AAV9, Liver DNA (NHP) [1, 10]: 0.166 fold; Fold Enrichment relative to AAV9, Liver RNA (NHP) [1, 11]: 0.000 fold; Fold Enrichment relative to AAV9, Muscle (NHP) [1, 12]: 0.000 fold; Fold Enrichment relative to AAV9, Brain (Mouse) (brain; [13]): 54.281 fold"
KTINGTGSPHSKAQNQQM,0.000,62.151,0.000,0.000,0.000,0.000,62.376,,,,,,,,
KTINGYDSPHKSGQYQHT,,,,,,,,,,,,,,,"Fold Enrichment relative to AAV9, Brain (NHP) [1, 9]: 81.534 fold; Fold Enrichment relative to AAV9, DRG (NHP) ([1]; NGS fold-enrichment, NHP DRG): 0.000 fold; Fold Enrichment relative to AAV9, Heart (NHP) ([1]; NGS fold-enrichment, NHP heart): 0.036 fold; Fold Enrichment relative to AAV9, Liver DNA (NHP) [1, 10]: 0.000 fold; Fold Enrichment relative to AAV9, Liver RNA (NHP) [1, 11]: 0.000 fold; Fold Enrichment relative to AAV9, Muscle (NHP) [1, 12]: 0.000 fold; Fold Enrichment relative to AAV9, Brain (Mouse) (brain; [13]): 10.524 fold"
KTINKEGSPHSKAQNQQT,,,,,,,,53.006,0.000,0.029,0.111,0.177,0.000,64.520,
KTINVSGSPHSKAQGQQT,,,,,,,,55.870,0.000,0.191,0.040,0.592,0.000,87.211,
KTIPAIGSPHSKAQNQQT,,,,,,,,52.346,0.000,0.009,0.134,0.034,0.000,51.949,
KTIPIDGSPHSKAQNQQT,0.000,64.421,0.047,0.936,0.234,0.000,76.826,,,,,,,,
KTIPKNGSPHSKAQNQQT,,,,,,,,53.824,0.000,0.032,0.178,0.115,0.000,77.458,
KTIPMEGSPHSKAQNQQT,,,,,,,,56.560,0.000,0.000,0.371,1.824,0.000,89.951,
KTIQDGGSPHSKAQNQQT,0.000,59.865,0.000,0.789,1.435,0.116,87.522,,,,,,,,
